Laboratory results taken from ChEMBL document CHEMBL3124829, “Discovery of SCH 900188: A Potent Hepatitis C Virus NS5B Polymerase Inhibitor Prodrug As a Development Candidate” (ACS Med Chem Lett, 2014).
Activity calls are given as the source filed them. The calls are words filed in the database; no cut-off is given here.

Key:
Rhesus monkey [1] = experiment: AUC (0 to 24 hrs) in monkey assessed as 4-Fluoro-6-((7-fluoro-4-oxo-3,4-dihydroquinazolin-6-yl)methyl)-8-(2-oxo-1,2-dihydropyridin-3-yl)-6H-furo[2,3-e]indole-7-carboxylic acid at 3 mg/kg, po; assay type: ADME, organism-based, Macaca mulatta, Plasma; parameters: time < 24 hr, dose 3 mg/kg, route oral; conditions: in vivo
Canis familiaris [2] = experiment: AUC (0 to 24 hrs) in dog assessed as 4-Fluoro-6-((7-fluoro-4-oxo-3,4-dihydroquinazolin-6-yl)methyl)-8-(2-oxo-1,2-dihydropyridin-3-yl)-6H-furo[2,3-e]indole-7-carboxylic acid at 3 mg/kg, po; assay type: ADME, organism-based, Canis lupus familiaris, Plasma; parameters: time < 24 hr, dose 3 mg/kg, route oral; conditions: in vivo
[3] = Mutagenic activity in micronucleus (unknown origin); assay type: ADME
Salmonella typhimurium = experiment: Mutagenic activity in Salmonella typhimurium by mini Ames test; assay type: toxicity, organism-based; conditions: salmonella enterica subsp. enterica serovar typhimurium
[4] = system: RNA-directed RNA polymerase (Hepacivirus hominis), O39930 [G554D]; experiment: Inhibition of HCV NS5B RdRp G554D mutant palm allosteric site
Sequence of RNA-directed RNA polymerase (Hepacivirus hominis), O39930 [G554D] (O39930 entry or part of it G554D): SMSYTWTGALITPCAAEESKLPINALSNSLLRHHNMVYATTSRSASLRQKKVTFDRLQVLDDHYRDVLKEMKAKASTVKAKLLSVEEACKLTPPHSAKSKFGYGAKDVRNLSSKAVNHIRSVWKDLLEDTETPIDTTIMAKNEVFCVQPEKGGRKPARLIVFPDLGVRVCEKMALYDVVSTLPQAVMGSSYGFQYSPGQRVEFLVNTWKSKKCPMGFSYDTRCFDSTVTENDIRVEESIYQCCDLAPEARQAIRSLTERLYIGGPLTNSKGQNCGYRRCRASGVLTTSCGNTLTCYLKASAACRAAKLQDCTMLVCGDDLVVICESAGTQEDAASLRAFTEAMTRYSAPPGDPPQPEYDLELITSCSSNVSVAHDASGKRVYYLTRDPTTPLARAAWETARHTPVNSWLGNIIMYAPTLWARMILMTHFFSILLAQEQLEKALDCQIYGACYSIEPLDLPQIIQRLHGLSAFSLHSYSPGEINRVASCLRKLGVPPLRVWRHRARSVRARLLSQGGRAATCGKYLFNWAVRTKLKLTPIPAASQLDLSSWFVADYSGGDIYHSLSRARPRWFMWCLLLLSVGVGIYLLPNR

[5] = system: RNA-directed RNA polymerase (Hepacivirus hominis), O39930 [M414T]; experiment: Inhibition of HCV NS5B RdRp M414T mutant palm allosteric site
Sequence of RNA-directed RNA polymerase (Hepacivirus hominis), O39930 [M414T] (O39930 entry or part of it M414T): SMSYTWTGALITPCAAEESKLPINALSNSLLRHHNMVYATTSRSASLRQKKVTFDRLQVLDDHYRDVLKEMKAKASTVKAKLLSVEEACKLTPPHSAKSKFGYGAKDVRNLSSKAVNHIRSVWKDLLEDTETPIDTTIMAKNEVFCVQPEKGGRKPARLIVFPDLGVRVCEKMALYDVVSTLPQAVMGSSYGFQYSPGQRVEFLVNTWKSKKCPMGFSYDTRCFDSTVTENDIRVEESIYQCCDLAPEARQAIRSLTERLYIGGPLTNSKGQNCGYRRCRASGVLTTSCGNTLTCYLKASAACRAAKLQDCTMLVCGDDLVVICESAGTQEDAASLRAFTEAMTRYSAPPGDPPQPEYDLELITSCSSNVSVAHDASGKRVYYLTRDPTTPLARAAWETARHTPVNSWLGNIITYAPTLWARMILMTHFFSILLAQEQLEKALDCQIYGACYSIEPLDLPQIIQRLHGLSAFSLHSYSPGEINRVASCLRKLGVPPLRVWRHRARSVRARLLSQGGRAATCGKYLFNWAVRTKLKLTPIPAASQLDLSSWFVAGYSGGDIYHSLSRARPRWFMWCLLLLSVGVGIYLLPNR

[6] = system: RNA-directed RNA polymerase (Hepacivirus hominis), O39930 [C316Y]; experiment: Inhibition of HCV NS5B RdRp C316Y mutant palm allosteric site
Sequence of RNA-directed RNA polymerase (Hepacivirus hominis), O39930 [C316Y] (O39930 entry or part of it C316Y): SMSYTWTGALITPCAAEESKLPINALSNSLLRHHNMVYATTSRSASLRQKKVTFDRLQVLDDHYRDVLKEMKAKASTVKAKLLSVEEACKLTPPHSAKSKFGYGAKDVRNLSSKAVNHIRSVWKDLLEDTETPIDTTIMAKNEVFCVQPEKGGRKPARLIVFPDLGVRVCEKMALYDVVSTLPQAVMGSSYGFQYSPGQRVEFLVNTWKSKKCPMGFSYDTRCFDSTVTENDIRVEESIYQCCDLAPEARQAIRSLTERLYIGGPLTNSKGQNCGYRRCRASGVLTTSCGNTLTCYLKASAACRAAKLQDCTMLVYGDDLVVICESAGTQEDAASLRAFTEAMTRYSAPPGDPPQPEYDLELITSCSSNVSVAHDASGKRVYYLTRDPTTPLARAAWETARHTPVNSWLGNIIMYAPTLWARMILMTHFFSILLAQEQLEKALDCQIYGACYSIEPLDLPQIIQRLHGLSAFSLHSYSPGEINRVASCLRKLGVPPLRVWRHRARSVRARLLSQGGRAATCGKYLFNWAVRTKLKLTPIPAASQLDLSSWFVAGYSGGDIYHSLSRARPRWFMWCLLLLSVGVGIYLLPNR

[7] = Solubility of the compound at pH 3; assay type: physicochemical; conditions: buffer
Rattus norvegicus [8] = experiment: AUC (0 to 24 hrs) in rat assessed as 4-Fluoro-6-((7-fluoro-4-oxo-3,4-dihydroquinazolin-6-yl)methyl)-8-(2-oxo-1,2-dihydropyridin-3-yl)-6H-furo[2,3-e]indole-7-carboxylic acid at 10 mg/kg, po; assay type: ADME, organism-based, Plasma; parameters: time < 24 hr, dose 10 mg/kg, route oral; conditions: in vivo
Hepatitis C virus = experiment: Antiviral activity against HCV infected in human hepatoma cells assessed as inhibition of viral RNA replication after 3 days by real time PCR analysis; assay type: functional, organism-based, Hepacivirus hominis; conditions: 72 h
[9] = Inhibition of HCV genotype 1b C-terminal polyhistidine-tagged NS5B Cdelta21 RdRp expressed in Escherichia coli using DCoH75 as template assessed as incorporation of [33P]-CTP in polynucleotide sequence after 2 hrs by scintillation counting analysis; parameters: species or system Hepatitis C virus subtype 1b
[10] = system: RNA-directed RNA polymerase (Hepacivirus hominis), O39930 [G554D]; experiment: Inhibition of HCV NS5B RdRp G554D mutant active site
[11] = system: RNA-directed RNA polymerase (Hepacivirus hominis), O39930 [M414T]; experiment: Inhibition of HCV NS5B RdRp M414T mutant active site
[12] = system: RNA-directed RNA polymerase (Hepacivirus hominis), O39930 [C316Y]; experiment: Inhibition of HCV NS5B RdRp C316Y mutant active site
Rhesus monkey [13] = experiment: Oral bioavailability in monkey assessed as 4-Fluoro-6-((7-fluoro-4-oxo-3,4-dihydroquinazolin-6-yl)methyl)-8-(2-oxo-1,2-dihydropyridin-3-yl)-6H-furo[2,3-e]indole-7-carboxylic acid; assay type: ADME, organism-based, Macaca mulatta; conditions: in vivo
Canis familiaris [14] = experiment: Oral bioavailability in dog assessed as 4-Fluoro-6-((7-fluoro-4-oxo-3,4-dihydroquinazolin-6-yl)methyl)-8-(2-oxo-1,2-dihydropyridin-3-yl)-6H-furo[2,3-e]indole-7-carboxylic acid; assay type: ADME, organism-based, Canis lupus familiaris; conditions: in vivo
Rattus norvegicus [15] = experiment: Oral bioavailability in rat assessed as 4-Fluoro-6-((7-fluoro-4-oxo-3,4-dihydroquinazolin-6-yl)methyl)-8-(2-oxo-1,2-dihydropyridin-3-yl)-6H-furo[2,3-e]indole-7-carboxylic acid; assay type: ADME, organism-based; conditions: in vivo
Rhesus monkey [16] = experiment: Half life in monkey assessed as 4-Fluoro-6-((7-fluoro-4-oxo-3,4-dihydroquinazolin-6-yl)methyl)-8-(2-oxo-1,2-dihydropyridin-3-yl)-6H-furo[2,3-e]indole-7-carboxylic acid at 1 mg/kg, iv; assay type: ADME, organism-based, Macaca mulatta; parameters: dose 1 mg/kg, route intravenous; conditions: in vivo
Canis familiaris [17] = experiment: Half life in dog assessed as 4-Fluoro-6-((7-fluoro-4-oxo-3,4-dihydroquinazolin-6-yl)methyl)-8-(2-oxo-1,2-dihydropyridin-3-yl)-6H-furo[2,3-e]indole-7-carboxylic acid at 1 mg/kg, iv; assay type: ADME, organism-based, Canis lupus familiaris; parameters: dose 1 mg/kg, route intravenous; conditions: in vivo
Rattus norvegicus [18] = experiment: Half life in rat assessed as 4-Fluoro-6-((7-fluoro-4-oxo-3,4-dihydroquinazolin-6-yl)methyl)-8-(2-oxo-1,2-dihydropyridin-3-yl)-6H-furo[2,3-e]indole-7-carboxylic acid at 3 mg/kg, iv; assay type: ADME, organism-based; parameters: dose 3 mg/kg, route intravenous; conditions: in vivo
Rhesus monkey [19] = experiment: Cmax in monkey assessed as 4-Fluoro-6-((7-fluoro-4-oxo-3,4-dihydroquinazolin-6-yl)methyl)-8-(2-oxo-1,2-dihydropyridin-3-yl)-6H-furo[2,3-e]indole-7-carboxylic acid; assay type: ADME, organism-based, Macaca mulatta; conditions: in vivo
Canis familiaris [20] = organism: Canis familiaris; experiment: Cmax in dog assessed as 4-Fluoro-6-((7-fluoro-4-oxo-3,4-dihydroquinazolin-6-yl)methyl)-8-(2-oxo-1,2-dihydropyridin-3-yl)-6H-furo[2,3-e]indole-7-carboxylic acid; assay type: ADME, organism-based, Canis lupus familiaris; conditions: in vivo
Rattus norvegicus [21] = organism: Rattus norvegicus; experiment: Cmax in rat assessed as 4-Fluoro-6-((7-fluoro-4-oxo-3,4-dihydroquinazolin-6-yl)methyl)-8-(2-oxo-1,2-dihydropyridin-3-yl)-6H-furo[2,3-e]indole-7-carboxylic acid; assay type: ADME, organism-based; conditions: in vivo
Rattus norvegicus [22] = organism: Rattus norvegicus; experiment: Ratio of drug level from liver to plasma in rat assessed as 4-Fluoro-6-((7-fluoro-4-oxo-3,4-dihydroquinazolin-6-yl)methyl)-8-(2-oxo-1,2-dihydropyridin-3-yl)-6H-furo[2,3-e]indole-7-carboxylic acid after 6 hrs; conditions: other tissue

Q: Which results are given for `CN(C)CCOC(=O)c1c(-c2ccc[nH]c2=O)c2c3occc3c(F)cc2n1Cc1cc2c(=O)[nH]cnc2cc1F.Cl`?
A: AUC (Rhesus monkey [1]): 144 µM·h; AUC (Canis familiaris [2]): 2.4 µM·h; Activity [3]: Non-toxic; Activity (Salmonella typhimurium): Non-toxic; inhibition [4]: inactive; inhibition [5]: inactive; inhibition [6]: inactive; solubility [7]: 900 µM; AUC (Rattus norvegicus [8]): 22 µM·h; EC50 (Hepatitis C virus): 5 nM; IC50 [9]: 150 nM; inhibition [10]: Active; inhibition [11]: Active; inhibition [12]: Active; F (Rhesus monkey [13]): 63%; F (Canis familiaris [14]): 29%; F (Rattus norvegicus [15]): 2%; t1/2 (Rhesus monkey [16]): 22 h; t1/2 (Canis familiaris [17]): 4 h; t1/2 (Rattus norvegicus [18]): 11 h; Cmax (Rhesus monkey [19]): 4100 nM; Cmax (Canis familiaris [20]): 800 nM; Cmax (Rattus norvegicus [21]): 2100 nM; Ratio (Rattus norvegicus [22]): 0.5
